“And” between values parts separate entries of the source, which are not always exact repeats. Identical values can stand only once. Like-named read-outs stand apart in the source and are kept apart here.
Tested on: SLI-N309K parasites
Experiment: Growth inhibition assay (72 h, LDH activity)
Type: cell-based, Plasmodium falciparum
Settings: for Growth inhibition, (1 - av / DMSO) x 100: Fig 2B source data, per biological replicate; for sample/DMSO: START(N309K), biological replicates 1-4; for EC50: Plasmodium falciparum
Protocol: Parasite growth assays with inhibitory compounds were performed as per[11] and are fully described in the Supplementary Information.
Molecular biology and transfection of P. falciparum: Selection Linked Integration […]
To introduce the PfSTART1 mutations, the second half of the coding sequence of pfstart1 (PF3D7_0104200), was recodonised without introns to the bias of Saccharomyces cerevisiae containing either WT, N309K or N330K mutations, and synthesised as gBlock fragments (Integrated DNA Technologies). The first 819 bp of the 5′ native sequence of pfstart1 was amplified from gDNA, to form the 5’ homology block (5’ HB). The 3′ recodonised gBlock fragment comprising of the last 552 bp of either the WT, N309K or N330K pfstart1 to form the ‘recodon’ block (primers listed in Table S2). The 5’ HB and recodon products were sewn together by overlapping PCR to reconstitute the full coding sequence of pfstart1. These blocks (WT/N309K/N330K) were digested with BglII/PstI, and inserted into the parasite vector p-HA-2A-Neo-glmS
1. This plasmid contains an in -frame haemagglutinin (HA) epitope for protein identification and a P2A peptide (2A) to skip continuous peptide bond synthesis of a downstream neomycin resistance gene ( NeoR).
Parasites containing the transfected DNA were selected using 2.5 nM WR99210 (Jacobus). To select for parasites in which single crossover integration had occurred into the pfstart1 locus, parasites were treated with 400 μg/mL G418 (geniticin, Sigma Aldrich) for 14 days: only parasites that have integrated the construct into their genome expressed the neomycin resistance gene together with the PfSTART1 protein.
Parasite lines were cloned using limiting dilution. These clones were then tested on Western Blot (for correct HA-tagging and protein size), and correct integration and sequence were tested by PCR analysis: PCR on the gDNA was conducted using the primers START_5’UTR.F and START_Seq.R (Table S2). […]
Growth inhibition assays. Synchronised ring-stage parasites (0.3-0.6% parasitemia, 2% haematocrit) were grown for 72 h in a serial-dilution of the compound under […]
and compound 4. Note that M-833 was first purchased from MolPort (MolPort -002-267-916) then made in-house at WEHI: the differences observed in EC50s across experiments are attributed to the different batches of M -833. For some experiments, 0, 0.25 or 2.5 mM of glucosamine (GlcN) was also added. Experiments were set up in technical duplicates or triplicates. Following a freeze -thaw cycle, lactate dehydrogenase (LDH) activity was assessed as an indicator of parasite growt h 5. 30 μL of parasite culture was incubated for 30 min in the dark with 75 μL Malstat mixture (0.1 M Tris pH 9.0, 20 g/L lactic acid, pH 7.5, 0.2% Triton-X100, 0.5 g/L acetylpyridine adenine dinucleotide (APAD, Sigma), 200 μg/mL nitroblue tetrazolium (NBT; Sigma), 1 μg/mL phenozine ethosulfate (PES; Sigma)). Absorbance was then measured at 650 nm, transformed using the formula below, plotted against the logarithm of the concentrations, and a non-linear regression (log(inhibitor) vs. response, variable slope) was calculated using GraphPad Prism to assess the half-inhibitory […]
Growth inhibition % = (1 − average(sample)− average(uRBC)) ∗ 100 […]
The DMSO samples were also used to assess growth of parasite in the presence of 0.25 and 2.5 mM GlcN (normalised by DMSO in 0 mM GlcN).
Egress, invasion & recovery assay. To measure egress, invasion and follow up recovery in the presence of different compounds, we adapted the method developed in6, using Hyp1-Nluc parasites7. These parasites episomally express the exported PEXEL protein Hyp1 (PF3D7_0113300) tagged with a NanoLuc luciferase (NLuc) and were selected with 2.5 nM WR99210 (Jacobus). Highly synchronised schizonts were obtained using ML10 (LifeArc) and sorbitol synchronisation, and Percoll-purified (the culture was gently layered over 67% Percoll (Cytiva) in RPMI, and centrifuged for 15 min at 1500 g and the schizont layer was collected and washed). […]

In the case of `Cc1cc(Cl)c(S(=O)(=O)N2CCCC2)cc1OCC(=O)NC1CCCCC1` [M-833], the “Growth inhibition, (1 - av / DMSO) x 100” value (SLI-N309K, M-833 conc 0.00304832 (unit not given)) is reported as -28.2579% and -1.2093% and -11.368%, the “Growth inhibition, (1 - av / DMSO) x 100” value (SLI-N309K, M-833 conc 0.00914495 (unit not given)) is reported as -16.5589% and 4.977% and -8.756% and the “Growth inhibition, (1 - av / DMSO) x 100” value (SLI-N309K, M-833 conc 0.0274348 (unit not given)) is reported as -9.0535% and 17.7442% and 3.575%. For the same molecule, the “Growth inhibition, (1 - av / DMSO) x 100” value (SLI-N309K, M-833 conc 0.0823045 (unit not given)) was -11.797% and 21.4186% and -2.462%, the “Growth inhibition, (1 - av / DMSO) x 100” value (SLI-N309K, M-833 conc 0.246914 (unit not given)) was -0.0196% and 23.5116% and 10.1477% and the “Growth inhibition, (1 - av / DMSO) x 100” value (SLI-N309K, M-833 conc 0.740741 (unit not given)) was 27.0233% and 58.6744% and 26.0116%. For the same molecule, the “Growth inhibition, (1 - av / DMSO) x 100” value (SLI-N309K, M-833 conc 2.22222 (unit not given)) was 70.1744% and 76.5116% and 55.7482%, the “Growth inhibition, (1 - av / DMSO) x 100” value (SLI-N309K, M-833 conc 6.66667 (unit not given)) was 87.2624% and 94.814% and 86.8337% and the “Growth inhibition, (1 - av / DMSO) x 100” value (SLI-N309K, M-833 conc 20 (unit not given)) was 88.5166% and 95.5116% and 93.0422%. The sample/DMSO (M-833 0.00152416 uM, 0 mM GlcN) was 2.39, the sample/DMSO (M-833 0.00152416 uM, 0.25 mM GlcN) was 4.826 and 2.498 and the sample/DMSO (M-833 0.00152416 uM, 2.5 mM GlcN) was 6.332. The sample/DMSO (M-833 0.00457247 uM, 0 mM GlcN) was 13.8723 and 0.5123 and 3.546 and -3.543, the sample/DMSO (M-833 0.00457247 uM, 0.25 mM GlcN) was 7.1 and 10.4012 and -2.062 and -3.605 and the sample/DMSO (M-833 0.00457247 uM, 2.5 mM GlcN) was 13.3216 and 19.7117 and 1.5728 and -5.599. The sample/DMSO (M-833 0.0137174 uM, 0 mM GlcN) was 7.619 and -0.2396 and 1.751 and 10.2857, the sample/DMSO (M-833 0.0137174 uM, 0.25 mM GlcN) was 8.4852 and 5.851 and 4.488 and 5.637 and the sample/DMSO (M-833 0.0137174 uM, 2.5 mM GlcN) was 21.8449 and 8.908 and 5.227 and 1.886. The sample/DMSO (M-833 0.0411523 uM, 0 mM GlcN) was 1.68 and 3.644 and 4.3 and 2.606, the sample/DMSO (M-833 0.0411523 uM, 0.25 mM GlcN) was 17.5682 and 13.2615 and 4.177 and 1.848 and the sample/DMSO (M-833 0.0411523 uM, 2.5 mM GlcN) was 19.1718 and 12.6822 and 8.512 and 8.472. The sample/DMSO (M-833 0.123457 uM, 0 mM GlcN) was 3.306 and 10.0306 and 17.9209 and 10.4229, the sample/DMSO (M-833 0.123457 uM, 0.25 mM GlcN) was 21.665 and 12.0728 and 20.7856 and 13.6953 and the sample/DMSO (M-833 0.123457 uM, 2.5 mM GlcN) was 31.9676 and 15.6301 and 24.5056 and 24.9447. The sample/DMSO (M-833 0.37037 uM, 0 mM GlcN) was 13.628 and 22.7795 and 30.4444 and 24.0457, the sample/DMSO (M-833 0.37037 uM, 0.25 mM GlcN) was 34.9176 and 21.471 and 31.1561 and 33.3027 and the sample/DMSO (M-833 0.37037 uM, 2.5 mM GlcN) was 40.447 and 24.7651 and 37.6894 and 48.2393. For the same molecule, the sample/DMSO (M-833 1.11111 uM, 0 mM GlcN) was 28.3402 and 44.5509 and 44.7966 and 56.0914, the sample/DMSO (M-833 1.11111 uM, 0.25 mM GlcN) was 53.0252 and 39.9238 and 58.0645 and 67.3975 and the sample/DMSO (M-833 1.11111 uM, 2.5 mM GlcN) was 64.9649 and 41.0107 and 63.8256 and 74.1417. The sample/DMSO (M-833 3.33333 uM, 0 mM GlcN) was 62.0018 and 73.866 and 73.9333 and 81.5771, the sample/DMSO (M-833 3.33333 uM, 0.25 mM GlcN) was 83.0296 and 69.5951 and 81.4805 and 87.3149 and the sample/DMSO (M-833 3.33333 uM, 2.5 mM GlcN) was 83.83 and 68.173 and 80.0856 and 88.1096. For the same molecule, the sample/DMSO (M-833 10 uM, 0 mM GlcN) was 89.1663 and 89.2589 and 93.2173 and 92.8571, the sample/DMSO (M-833 10 uM, 0.25 mM GlcN) was 91.9813 and 85.912 and 92.402 and 91.8609 and the sample/DMSO (M-833 10 uM, 2.5 mM GlcN) was 89.5706 and 77.5672 and 88.9441 and 91.41. It also gave an EC50 (72 h, Fig 2B, SLI-N309K, 72 h, n = 3, unit only in x-axis title, read-out: EC50 (95% confidence interval)) of 992 nM, an EC50 (Fig 3C, SLI-N309K, 0 mM GlcN, n = 4, unit on plot axis, read-out: EC50 M-833 (95% confidence interval)) of 1620 nM and an EC50 (Fig 3C, SLI-N309K, 0.25 mM GlcN, n = 4, unit on plot axis, read-out: EC50 M-833 (95% confidence interval)) of 968 nM. The EC50 (Fig 3C, SLI-N309K, 2.5 mM GlcN, n = 4, unit on plot axis, read-out: EC50 M-833 (95% confidence interval)) was 645 nM, the “fold more resistant than the 3D7 parental parasites” value (SLI-N309K, Fig 2B) was 10 fold and the “fold reduction of EC50 on addition of 2.5 mM GlcN” value (SLI-N309K, not statistically significant) was 2.5 fold.

— publication PMC11189555, “Aryl amino acetamides prevent Plasmodium falciparum ring development via targeting the lipid-transfer protein PfSTART1” (Nature Communications, 2024)
